Experimental data reported in DBAASP.
Converted amounts (≈) assume the structure as drawn. “And” between values parts separate entries of the source, which are not always exact repeats. Equal values may be shown once. One block for each compound: values may come before it.

Columns and labels:
Assay in all cases: ≥ marks a high value that may be exact or a test limit, other limits are often not marked, values filed in µg/mL are converted to µM
[1] = test system: Escherichia coli ATCC 2592
Cryptococcus neoformans = test system: Cryptococcus neoformans
[2] = test system: Staphylococcus aureus ATCC 6538
Candida tropicalis = test system: Candida tropicalis
[3] = test system: Candida krusei ATCC 90878
[4] = test system: Micrococcus luteus ATCC 9341
Candida glabrata = test system: Candida glabrata
[5] = test system: Candida krusei ATCC 200917
[6] = test system: Candida albicans ATCC 200955
[7] = test system: Candida albicans ATCC 36232
[8] = test system: Pseudomonas aeruginosa ATCC 9027
Candida albicans = test system: Candida albicans
Aeromonas hydrophila = test system: Aeromonas hydrophila
Escherichia coli MG1655 = test system: Escherichia coli MG1655
Vibrio harveyi = test system: Vibrio harveyi
[9] = test system: Staphylococcus aureus SAP 0017
[10] = test system: Corynebacterium xerosis C875
Bacillus subtilis C971 = test system: Bacillus subtilis C971
[11] = test system: Salmonella typhimurium C587
[12] = test system: Klebsiella pneumoniae ATCC 700603
Escherichia coli UB1005 = test system: Escherichia coli UB1005
[13] = test system: Salmonella typhimurium C610
[14] = test system: Escherichia coli ATCC 25922
[15] = test system: Pseudomonas aeruginosa H188
[16] = test system: Pseudomonas aeruginosa H187
[17] = test system: Staphylococcus epidermidis ATCC 12228
[18] = test system: Staphylococcus aureus ATCC 25923
[19] = test system: Staphylococcus epidermidis C621
[20] = test system: Enterococcus faecalis C625
[21] = test system: Streptococcus pneumoniae ATCC 49619
Escherichia coli DC2 = test system: Escherichia coli DC2
[22] = test system: Pseudomonas aeruginosa ATCC 27853
Pseudomonas fluorescens = test system: Pseudomonas fluorescens
[23] = test system: Pseudomonas aeruginosa M76
[24] = test system: Achromobacter xylosoxidans
[25] = test system: Salmonella enterica serovar Typhimurium
[26] = test system: Stenotrophomonas maltophilia
[27] = test system: Pseudomonas aeruginosa M1426
[28] = test system: Pseudomonas aeruginosa M917
Staphylococcus aureus = test system: Staphylococcus aureus
Pseudomonas aeruginosa = test system: Pseudomonas aeruginosa
[29] = test system: Pseudomonas aeruginosa R70
[30] = test system: Pseudomonas aeruginosa M1251
[31] = test system: Escherichia coli BW25113 ΔsbmA
Escherichia coli BW25113 = test system: Escherichia coli BW25113
[32] = test system: Acinetobacter baumannii ATCC 19606

SMILES: CC[C@H](C)[C@H](NC(=O)[C@H](C)NC(=O)[C@H](CCCN=C(N)N)NC(=O)[C@H](Cc1cnc[nH]1)NC(=O)[C@@H](NC(=O)[C@H](C)NC(=O)[C@H](CCCN=C(N)N)NC(=O)[C@@H](NC(=O)CNC(=O)[C@H](Cc1cnc[nH]1)NC(=O)[C@H](CO)NC(=O)[C@@H](NC(=O)[C@H](Cc1c[nH]c2ccccc12)NC(=O)CNC(=O)[C@@H](NC(=O)[C@@H](NC(=O)[C@H](Cc1cnc[nH]1)NC(=O)[C@H](C)NC(=O)[C@@H](NC(=O)[C@@H](N)Cc1ccccc1)[C@@H](C)CC)[C@@H](C)CC)[C@@H](C)CC)[C@@H](C)CC)C(C)C)[C@@H](C)CC)C(=O)N[C@@H](Cc1cnc[nH]1)C(N)=O [FIAHIIGWISHGVRAIHRAIH]
- MIC (Aeromonas hydrophila): ≥ 128 µM
- MIC (Escherichia coli MG1655): 16 µM and ≥ 32 µM
- MIC (Vibrio harveyi): ≥ 32 µM

SMILES: CC(C)C[C@H](NC(=O)[C@H](CC(C)C)NC(=O)[C@H](CCCCN)NC(=O)[C@H](CCCCN)NC(=O)[C@H](C)NC(=O)[C@H](CC(C)C)NC(=O)[C@H](CCCCN)NC(=O)[C@H](C)NC(=O)[C@H](CC(C)C)NC(=O)[C@H](CC(C)C)NC(=O)[C@H](CCCCN)NC(=O)[C@H](C)NC(=O)[C@@H](N)Cc1ccccc1)C(N)=O [FAKLLAKLAKKLL]
- MIC (Pseudomonas fluorescens): 5.49 µM (≈ 7.99 µg/mL)
- MIC [2]: 3.43 µM (≈ 5 µg/mL)
- MIC [23]: 2.75 µM (≈ 4 µg/mL)
- MIC [24]: ≥ 43.9 µM
- MIC [25]: 2.75 µM (≈ 4 µg/mL)
- MIC [26]: 1.37 µM (≈ 2 µg/mL)
- MIC [27]: 5.49 µM (≈ 7.99 µg/mL)
- MIC (Escherichia coli UB1005): 2.75 µM (≈ 4 µg/mL)
- MIC [28]: 11 µM (≈ 16 µg/mL)
- MIC (Staphylococcus aureus): 2.75 µM (≈ 4 µg/mL)
- MIC (Pseudomonas aeruginosa): 5.49 µM (≈ 7.99 µg/mL)
- MIC [29]: 2.75 µM (≈ 4 µg/mL)
- MIC [30]: 2.75 µM (≈ 4 µg/mL)
- MIC [8]: 68.6 µM (≈ 99.9 µg/mL)
- MIC (Candida albicans): 5.49 µM (≈ 7.99 µg/mL)

SMILES: CC[C@H](C)[C@H](NC(=O)[C@H](CCCN=C(N)N)NC(=O)[C@@H](N)Cc1c[nH]c2ccccc12)C(=O)N[C@@H](CCCN=C(N)N)C(=O)N[C@@H](CCCN=C(N)N)C(=O)N[C@@H](CCCN=C(N)N)C(=O)N1CCC[C@H]1C(=O)N1CCC[C@H]1C(=O)N[C@@H](CCCN=C(N)N)C(=O)N[C@@H](CC(C)C)C(=O)N1CCC[C@H]1C(=O)N[C@@H](CCCN=C(N)N)C(=O)N1CCC[C@H]1C(=O)N[C@@H](CCCN=C(N)N)C(=O)N[C@@H](Cc1c[nH]c2ccccc12)C(=O)N[C@@H](CCCN=C(N)N)C(=O)O [WRIRRRPPRLPRPRWR]
- MIC [12]: 4 µM (≈ 9.02 µg/mL)
- MIC [31]: 3 µM (≈ 6.76 µg/mL)
- MIC [18]: 32 µM (≈ 72.2 µg/mL)
- MIC (Escherichia coli BW25113): 2 µM (≈ 4.51 µg/mL)
- MIC [32]: 32 µM (≈ 72.2 µg/mL)
- MIC [22]: 64 µM (≈ 144 µg/mL)

Next, values leading:

- MIC [1]: 7.98 µM (≈ 11 µg/mL)
- MIC (Cryptococcus neoformans): 2.9 µM (≈ 4 µg/mL)
- MIC [2]: 2.27 µM (≈ 3.13 µg/mL)
- MIC (Candida tropicalis): 2.9 µM (≈ 4 µg/mL)
- MIC [3]: 1.6 µM (≈ 2.2 µg/mL)
- MIC [4]: 2.27 µM (≈ 3.13 µg/mL)
- MIC (Candida glabrata): 23.2 µM (≈ 32 µg/mL)
- MIC [5]: 1.6 µM (≈ 2.2 µg/mL)
- MIC [6]: 3.2 µM (≈ 4.41 µg/mL)
- MIC [7]: 2.27 µM and 3.21 µM and 4.53 µM
- MIC [8]: 4.35 µM (≈ 6 µg/mL)
- MIC (Candida albicans): 5.8 µM (≈ 7.99 µg/mL)
SMILES: CC(C)[C@H](NC(=O)[C@H](CCCCN)NC(=O)[C@H](Cc1ccccc1)NC(=O)[C@@H](NC(=O)[C@@H](NC(=O)[C@H](CCCCN)NC(=O)[C@@H](N)CCCCN)C(C)C)C(C)C)C(=O)N[C@@H](CCCCN)C(=O)N[C@@H](Cc1ccccc1)C(=O)N[C@@H](CCCCN)C(=O)N[C@@H](CCCCN)C(N)=O [KKVVFKVKFKK]

- MIC [9]: 1.73 µM (≈ 5.07 µg/mL)
- MIC [10]: 0.692 µM (≈ 2.03 µg/mL)
- MIC (Bacillus subtilis C971): 0.692 µM (≈ 2.03 µg/mL)
- MIC [11]: 2.21 µM (≈ 6.49 µg/mL)
- MIC [12]: 4 µM (≈ 11.7 µg/mL)
- MIC (Escherichia coli UB1005): 0.864 µM (≈ 2.54 µg/mL)
- MIC [13]: 0.864 µM (≈ 2.54 µg/mL)
- MIC [14]: 2.83 µM (≈ 8.3 µg/mL)
- MIC [15]: 2.21 µM (≈ 6.49 µg/mL)
- MIC [16]: 1.73 µM (≈ 5.07 µg/mL)
- MIC [17]: 2.83 µM (≈ 8.3 µg/mL)
- MIC [18]: 2.77 µM and 5.66 µM
- MIC [19]: 1.11 µM (≈ 3.25 µg/mL)
- MIC [20]: 5.53 µM (≈ 16.2 µg/mL)
- MIC [21]: 2 µM (≈ 5.87 µg/mL)
- MIC (Escherichia coli DC2): 0.864 µM (≈ 2.54 µg/mL)
- MIC [22]: 8 µM (≈ 23.5 µg/mL)
SMILES: CC[C@H](C)[C@H](NC(=O)[C@H](C)NC(=O)[C@H](CCCCN)NC(=O)[C@H](CC(C)C)NC(=O)[C@H](C)NC(=O)[C@@H](NC(=O)[C@H](Cc1cnc[nH]1)NC(=O)[C@H](CC(C)C)NC(=O)[C@@H](NC(=O)[C@@H](NC(=O)[C@H](CCCCN)NC(=O)[C@H](C)NC(=O)[C@H](C)NC(=O)[C@H](CO)NC(=O)[C@H](CCCCN)NC(=O)[C@H](Cc1ccccc1)NC(=O)[C@@H](NC(=O)[C@H](CCCCN)NC(=O)[C@H](CC(C)C)NC(=O)[C@H](Cc1ccccc1)NC(=O)[C@H](CO)NC(=O)[C@H](CCCCN)NC(=O)[C@H](Cc1c[nH]c2ccccc12)NC(=O)[C@H](CCCCN)NC(C)=O)[C@@H](C)O)[C@@H](C)O)C(C)C)[C@@H](C)O)C(=O)N[C@@H](CO)C(=O)N[C@@H](CO)C(N)=O [KWKSFLKTFKSAAKTVLHTALKAISS]
